According to patent publication US20240109900A1, “AZABICYCLIC SHP2 INHIBITORS” (IRBM S.P.A., priority 2021, published 2024):

How the values were obtained:
[1] = molecular target: SHP-2 enzyme (Met1-Leu525) (Homo sapiens (Human), UniProt Q06124); experiment: SHP2 inhibition enzymatic assay; assay type: biochemical; conditions: 0.5 nM SHP-2 activated by 500 nM IRS1 peptide, 75 μM DiFMUP substrate; read-out: SHP2wt-IC50
Procedure, shortened: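 SHP-2 (Met1-Leu525), 0.5 nM, activated with 500 nM IRS1 bis-phosphopeptide, preincubated 30 min with compounds in HEPES pH 7.2 buffer with 5 mM DTT. 75 μM DiFMUP added for 30 min at room temperature, stopped with bpV; fluorescence read. IC50 from four-parameter logistic fit of % inhibition.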

[2] = tested on: ERK phosphorylation in KYSE-520 cells; experiment: Phospho-ERK cellular assay; assay type: cell-based; conditions: Homo sapiens, KYSE-520, 2 h, KYSE-520 cells, 2 h at 37° C., phospho-ERK1/2 (Thr202/Tyr204) TR-FRET; read-out: PERK IC50
Procedure, shortened: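 TR-FRET read-out of ERK1/2 Thr202/Tyr204 phosphorylation was taken after overnight antibody incubation at room temperature. Before that, KYSE-520 cells were treated 2 h at 37 °C with compound dilutions and lysed 30 min. Percent inhibition relative to vehicle and cell-free wells was fitted four-parametrically to give IC50.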

SHP-2 enzyme (Met1-Leu525), sequence (Q06124 1-525): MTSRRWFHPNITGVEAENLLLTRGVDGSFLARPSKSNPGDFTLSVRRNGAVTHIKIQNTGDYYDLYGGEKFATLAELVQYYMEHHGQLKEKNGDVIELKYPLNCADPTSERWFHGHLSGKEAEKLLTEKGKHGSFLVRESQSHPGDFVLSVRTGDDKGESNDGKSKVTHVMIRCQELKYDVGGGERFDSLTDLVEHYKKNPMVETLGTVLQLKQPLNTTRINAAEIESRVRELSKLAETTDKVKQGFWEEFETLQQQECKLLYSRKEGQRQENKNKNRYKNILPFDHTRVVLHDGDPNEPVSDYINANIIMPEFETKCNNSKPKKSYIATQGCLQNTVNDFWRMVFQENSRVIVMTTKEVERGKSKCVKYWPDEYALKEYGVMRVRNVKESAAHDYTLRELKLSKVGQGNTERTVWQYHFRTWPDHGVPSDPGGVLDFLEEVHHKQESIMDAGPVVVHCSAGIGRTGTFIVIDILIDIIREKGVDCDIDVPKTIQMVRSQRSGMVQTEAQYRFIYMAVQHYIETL

`CN(C)C(=O)c1ccc(-c2n[nH]c3nc(N4CC[C@@H]5[C@H](C4)[C@@]5(CN)c4ccccc4F)cnc23)c2cccnc12` [Example 212, 5-(6-((1S,6R,7R)-7-(aminomethyl)-7-(2-fluorophenyl)-3-azabicyclo[4.1.0]heptan-3-yl)-1H-pyrazolo[3,4-b]pyrazin-3-yl)-N,N-dimethylquinoline-8-carboxamide] showed an IC50 [1] of less than 0.5 µM and an IC50 [2] greater than 5 µM.

Work on `Cc1csc([C@@]2(CN)[C@@H]3CN(c4cnc5c(-c6ccc(F)c7ncccc67)n[nH]c5n4)C[C@@H]32)n1` [Example 213, ((1R,5S,6r)-3-(3-(8-fluoroquinolin-5-yl)-1H-pyrazolo[3,4-b]pyrazin-6-yl)-6-(4-methylthiazol-2-yl)-3-azabicyclo[3.1.0]hexan-6-yl)methanamine] yielded an IC50 [1] of less than 0.5 µM and an IC50 [2] of less than 1 µM.

For `COc1ccc(-c2n[nH]c3nc(N4CC[C@@H]5[C@H](C4)[C@@]5(CN)c4ccccc4F)cnc23)nc1N` [Example 214, 6-(6-((1S,6R,7R)-7-(aminomethyl)-7-(2-fluorophenyl)-3-azabicyclo[4.1.0]heptan-3-yl)-1H-pyrazolo[3,4-b]pyrazin-3-yl)-3-methoxypyridin-2-amine], the IC50 [1] was less than 0.5 µM and the IC50 [2] was greater than 5 µM.

With `Cn1ccc(Oc2ccc(-c3n[nH]c4nc(N5CC[C@@H]6[C@H](C5)[C@@]6(CN)c5ccccc5F)cnc34)c(Cl)c2Cl)n1` [Example 215, ((1S,6R,7R)-3-(3-(2,3-dichloro-4-((1-methyl-1H-pyrazol-3-yl)oxy)phenyl)-1H-pyrazolo[3,4-b]pyrazin-6-yl)-7-(2-fluorophenyl)-3-azabicyclo[4.1.0]heptan-7-yl)methanamine] the IC50 [1] was less than 0.5 µM and the IC50 [2] was less than 1 µM.

Work on `NC[C@]1(c2ccccc2F)[C@@H]2CCN(c3cnc4c(-c5ccc6c(c5Cl)CC(=O)N6)n[nH]c4n3)C[C@@H]21` [Example 216, 5-(6-((1S,6R,7R)-7-(aminomethyl)-7-(2-fluorophenyl)-3-azabicyclo[4.1.0]heptan-3-yl)-1H-pyrazolo[3,4-b]pyrazin-3-yl)-4-chloroindolin-2-one] yielded an IC50 [1] of less than 0.5 µM and an IC50 [2] of less than 1 µM.

`CN1C(=O)Cc2cc(-c3n[nH]c4nc(N5CC[C@@H]6[C@H](C5)[C@@]6(CN)c5ccccc5F)cnc34)ccc21` [Example 217, 5-(6-((1S,6R,7R)-7-(aminomethyl)-7-(2-fluorophenyl)-3-azabicyclo[4.1.0]heptan-3-yl)-1H-pyrazolo[3,4-b]pyrazin-3-yl)-1-methylindolin-2-one] was tested, and the IC50 [1] was less than 0.5 µM and the IC50 [2] was less than 1 µM.

Molecule `NC[C@]1(c2ccccc2F)[C@@H]2CCN(c3cnc4c(-c5ccc6c(c5)CNC6=O)n[nH]c4n3)C[C@@H]21` [Example 218, 5-(6-((1S,6R,7R)-7-(aminomethyl)-7-(2-fluorophenyl)-3-azabicyclo[4.1.0]heptan-3-yl)-1H-pyrazolo[3,4-b]pyrazin-3-yl)isoindolin-1-one] has an IC50 [1] of less than 0.5 µM and an IC50 [2] of less than 1 µM.

For `COc1ccc(-c2n[nH]c3nc(N4CC[C@@H]5[C@H](C4)[C@@]5(CN)c4ccccc4F)cnc23)c2ccncc12` [Example 219, ((1S,6R,7R)-7-(2-fluorophenyl)-3-(3-(8-methoxyisoquinolin-5-yl)-1H-pyrazolo[3,4-b]pyrazin-6-yl)-3-azabicyclo[4.1.0]heptan-7-yl)methanamine], the IC50 [1] was less than 0.5 µM and the IC50 [2] was less than 1 µM.

With `NC[C@]1(c2ccccc2F)[C@@H]2CCN(c3cnc4c(-c5ccc(C(N)=O)c6ncccc56)n[nH]c4n3)C[C@@H]21` [Example 220, 5-(6-((1S,6R,7R)-7-(aminomethyl)-7-(2-fluorophenyl)-3-azabicyclo[4.1.0]heptan-3-yl)-1H-pyrazolo[3,4-b]pyrazin-3-yl)quinoline-8-carboxamide] the IC50 [1] was less than 0.5 µM and the IC50 [2] was less than 1 µM.

For `Cn1cc2c(Cl)c(-c3n[nH]c4nc(N5C[C@@H]6[C@H](C5)[C@@]6(CN)c5c(F)cccc5F)cnc34)ccc2n1` [Example 221, ((1R,5S,6s)-3-(3-(4-chloro-2-methyl-2H-indazol-5-yl)-1H-pyrazolo[3,4-b]pyrazin-6-yl)-6-(2,6-difluorophenyl)-3-azabicyclo[3.1.0]hexan-6-yl)methanamine], the IC50 [1] was less than 0.5 µM and the IC50 [2] was less than 1 µM.

`Cc1c(-c2n[nH]c3nc(N4CC[C@@H]5[C@H](C4)[C@@]5(CN)c4ccccc4F)cnc23)ccc2nccnc12` [Example 222, ((1S,6R,7R)-7-(2-fluorophenyl)-3-(3-(5-methylquinoxalin-6-yl)-1H-pyrazolo[3,4-b]pyrazin-6-yl)-3-azabicyclo[4.1.0]heptan-7-yl)methanamine] was tested, and the IC50 [1] was less than 0.5 µM and the IC50 [2] was less than 1 µM.

With `COC(=O)c1ccc(-c2n[nH]c3nc(N4CC[C@@H]5[C@H](C4)[C@@]5(CN)c4ccccc4F)cnc23)c(Cl)c1` [Example 223, methyl 4-(6-((1S,6R,7R)-7-(aminomethyl)-7-(2-fluorophenyl)-3-azabicyclo[4.1.0]heptan-3-yl)-1H-pyrazolo[3,4-b]pyrazin-3-yl)-3-chlorobenzoate] the IC50 [1] was less than 0.5 µM and the IC50 [2] was less than 1 µM.

`NC[C@]1(c2ccccc2F)[C@@H]2CCN(c3cnc4c(-c5cnc6ccccn56)n[nH]c4n3)C[C@@H]21` [Example 224, ((1S,6R,7R)-7-(2-fluorophenyl)-3-(3-(imidazo[1,2-a]pyridin-3-yl)-1H-pyrazolo[3,4-b]pyrazin-6-yl)-3-azabicyclo[4.1.0]heptan-7-yl)methanamine] gave an IC50 [1] of less than 0.5 µM and an IC50 [2] of less than 1 µM.

`COc1c(F)cc(-c2n[nH]c3nc(N4CC[C@@H]5[C@H](C4)[C@@]5(CN)c4ccccc4F)cnc23)c2cccnc12` [Example 225, ((1S,6R,7R)-3-(3-(7-fluoro-8-methoxyquinolin-5-yl)-1H-pyrazolo[3,4-b]pyrazin-6-yl)-7-(2-fluorophenyl)-3-azabicyclo[4.1.0]heptan-7-yl)methanamine] was tested, and the IC50 [1] was less than 0.5 µM and the IC50 [2] was less than 1 µM.

`Cc1ccc2c(-c3n[nH]c4nc(N5CC[C@@H]6[C@H](C5)[C@@]6(CN)c5ccccc5F)cnc34)ccc(F)c2n1` [Example 226, ((1S,6R,7R)-3-(3-(8-fluoro-2-methylquinolin-5-yl)-1H-pyrazolo[3,4-b]pyrazin-6-yl)-7-(2-fluorophenyl)-3-azabicyclo[4.1.0]heptan-7-yl)methanamine] gave an IC50 [1] of less than 0.5 µM and an IC50 [2] of less than 1 µM.

Work on `NC[C@]1(c2ccccc2F)[C@@H]2CCN(c3cnc4c(-c5ccc(C(=O)O)c(Cl)c5Cl)n[nH]c4n3)C[C@@H]21` [Example 227, 4-(6-((1S,6R,7R)-7-(aminomethyl)-7-(2-fluorophenyl)-3-azabicyclo[4.1.0]heptan-3-yl)-1H-pyrazolo[3,4-b]pyrazin-3-yl)-2,3-dichlorobenzoic acid] yielded an IC50 [1] of less than 0.5 µM and an IC50 [2] greater than 5 µM.

Work on `CN1C(=O)COc2ccc(-c3n[nH]c4nc(N5CC[C@@H]6[C@H](C5)[C@@]6(CN)c5ccccc5F)cnc34)c(Cl)c21` [Example 228, 6-(6-((1S,6R,7R)-7-(aminomethyl)-7-(2-fluorophenyl)-3-azabicyclo[4.1.0]heptan-3-yl)-1H-pyrazolo[3,4-b]pyrazin-3-yl)-5-chloro-4-methyl-2H-benzo[b][1,4]oxazin-3(4H)-one] yielded an IC50 [1] of less than 0.5 µM and an IC50 [2] of less than 1 µM.
